# Columns and labels:
# Assay in all cases: relative viability (nuclei count vs DMSO), 5 days (fraction); higher = more cells survive
# LOU-NH91 = tested on: LOU-NH91
# In short: (§1)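 The day after seeding in 1536-well plates, lung cancer cell lines were treated by pin tool with a single drug, or with a fixed anchor-drug dose together with five library-drug doses (not always all listed) in √10 steps. After 5 days, a combined fix-and-stain solution (final 0.05% Triton X-100, 1% formaldehyde, 1 ug/ml Hoechst) was added. Nuclei counted on 4× images gave relative viability as treated counts over vehicle counts, reported as the median of duplicate plates.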
# HCC-366 = tested on: HCC-366
# In short: as §1
# HCC-44 = tested on: HCC-44
# In short: as §1
# Calu-6 = tested on: Calu-6
# In short: as §1
# NCI-H1299 = tested on: NCI-H1299
# In short: as §1
# NCI-H1437 = tested on: NCI-H1437
# In short: as §1
# IA-LM = tested on: IA-LM
# In short: as §1
# NCI-H3122 = tested on: NCI-H3122
# In short: as §1
# NCI-H2085 = tested on: NCI-H2085
# In short: as §1
# EBC-1 = tested on: EBC-1
# In short: as §1
# NCI-H1703 = tested on: NCI-H1703
# In short: as §1
structure (smiles),measurement,setting,value
CCN(CC)CCCCNc1ncc2cc(-c3cc(OC)cc(OC)c3)c(NC(=O)NC(C)(C)C)nc2n1 + CC(C)C[C@H](NC(=O)[C@H](Cc1ccccc1)NC(=O)c1cnccn1)B(O)O [Bortezomib] (partner 0.002 µM),relative viability,LOU-NH91; first compound 0.01 µM,0.531
same,relative viability,LOU-NH91; first compound 0.03162 µM,0.49
same,relative viability,LOU-NH91; first compound 0.1 µM,0.498
same,relative viability,LOU-NH91; first compound 0.3162 µM,0.515
same,relative viability,LOU-NH91; first compound 1 µM,0.424
same,relative viability,HCC-366; first compound 0.01 µM,1.09
same,relative viability,HCC-366; first compound 0.03162 µM,1.06
same,relative viability,HCC-366; first compound 0.1 µM,1.48
same,relative viability,HCC-366; first compound 0.3162 µM,1.29
same,relative viability,HCC-366; first compound 1 µM,0.968
same,relative viability,HCC-44; first compound 0.01 µM,0.908
same,relative viability,HCC-44; first compound 0.03162 µM,0.883
same,relative viability,HCC-44; first compound 0.1 µM,1.08
same,relative viability,HCC-44; first compound 0.3162 µM,1.03
same,relative viability,HCC-44; first compound 1 µM,0.896
same,relative viability,Calu-6; first compound 0.01 µM,1.01
same,relative viability,Calu-6; first compound 0.03162 µM,1.11
same,relative viability,Calu-6; first compound 0.1 µM,1.08
same,relative viability,Calu-6; first compound 0.3162 µM,1.11
same,relative viability,Calu-6; first compound 1 µM,0.996
same,relative viability,NCI-H1299; first compound 0.01 µM,1.11
same,relative viability,NCI-H1299; first compound 0.03162 µM,1.02
same,relative viability,NCI-H1299; first compound 0.1 µM,1.03
same,relative viability,NCI-H1299; first compound 0.3162 µM,0.979
same,relative viability,NCI-H1299; first compound 1 µM,0.954
same,relative viability,NCI-H1437; first compound 0.01 µM,0.536
same,relative viability,NCI-H1437; first compound 0.03162 µM,0.533
same,relative viability,NCI-H1437; first compound 0.1 µM,0.593
same,relative viability,NCI-H1437; first compound 0.3162 µM,0.554
same,relative viability,NCI-H1437; first compound 1 µM,0.472
same,relative viability,IA-LM; first compound 0.01 µM,0.868
same,relative viability,IA-LM; first compound 0.03162 µM,0.795
same,relative viability,IA-LM; first compound 0.1 µM,0.977
same,relative viability,IA-LM; first compound 0.3162 µM,0.557
same,relative viability,IA-LM; first compound 1 µM,0.776
same,relative viability,NCI-H3122; first compound 0.01 µM,1.02
same,relative viability,NCI-H3122; first compound 0.03162 µM,1.07
same,relative viability,NCI-H3122; first compound 0.1 µM,1.1
same,relative viability,NCI-H3122; first compound 0.3162 µM,1.06
same,relative viability,NCI-H3122; first compound 1 µM,1.01
same,relative viability,NCI-H2085; first compound 0.01 µM,0.991
same,relative viability,NCI-H2085; first compound 0.03162 µM,1.03
same,relative viability,NCI-H2085; first compound 0.1 µM,1.09
same,relative viability,NCI-H2085; first compound 0.3162 µM,1.15
same,relative viability,NCI-H2085; first compound 1 µM,0.999
same,relative viability,EBC-1; first compound 0.01 µM,0.554
same,relative viability,EBC-1; first compound 0.03162 µM,0.599
same,relative viability,EBC-1; first compound 0.1 µM,0.634
same,relative viability,EBC-1; first compound 0.3162 µM,0.565
same,relative viability,EBC-1; first compound 1 µM,0.458
same,relative viability,NCI-H1703; first compound 0.01 µM,0.343
same,relative viability,NCI-H1703; first compound 0.1 µM,0.364
same,relative viability,NCI-H1703; first compound 0.3162 µM,0.215
same,relative viability,NCI-H1703; first compound 1 µM,0.236
O=c1cc(-c2cccc3c2Sc2ccccc2S3)oc(N2CCOCC2)c1 + CC(C)C[C@H](NC(=O)[C@H](Cc1ccccc1)NC(=O)c1cnccn1)B(O)O [Bortezomib] (partner 0.002 µM),relative viability,LOU-NH91; first compound 0.08 µM,0.481
same,relative viability,LOU-NH91; first compound 0.253 µM,0.514
same,relative viability,LOU-NH91; first compound 0.8 µM,0.546
same,relative viability,LOU-NH91; first compound 2.53 µM,0.489
same,relative viability,LOU-NH91; first compound 8 µM,0.502
same,relative viability,HCC-366; first compound 0.08 µM,1.09
same,relative viability,HCC-366; first compound 0.253 µM,1.65
same,relative viability,HCC-366; first compound 0.8 µM,1.12
same,relative viability,HCC-366; first compound 2.53 µM,1.03
same,relative viability,HCC-366; first compound 8 µM,1.28
same,relative viability,HCC-44; first compound 0.08 µM,0.907
same,relative viability,HCC-44; first compound 0.253 µM,1.07
same,relative viability,HCC-44; first compound 0.8 µM,0.837
same,relative viability,HCC-44; first compound 2.53 µM,0.816
same,relative viability,HCC-44; first compound 8 µM,1.03
same,relative viability,Calu-6; first compound 0.08 µM,0.91
same,relative viability,Calu-6; first compound 0.253 µM,1.02
same,relative viability,Calu-6; first compound 0.8 µM,1.01
same,relative viability,Calu-6; first compound 2.53 µM,0.974
same,relative viability,Calu-6; first compound 8 µM,0.976
same,relative viability,NCI-H1299; first compound 0.08 µM,1.02
same,relative viability,NCI-H1299; first compound 0.253 µM,1.02
same,relative viability,NCI-H1299; first compound 0.8 µM,1.05
same,relative viability,NCI-H1299; first compound 2.53 µM,0.997
same,relative viability,NCI-H1299; first compound 8 µM,1.01
same,relative viability,NCI-H1437; first compound 0.08 µM,0.51
same,relative viability,NCI-H1437; first compound 0.253 µM,0.626
same,relative viability,NCI-H1437; first compound 0.8 µM,0.473
same,relative viability,NCI-H1437; first compound 2.53 µM,0.555
same,relative viability,NCI-H1437; first compound 8 µM,0.543
same,relative viability,IA-LM; first compound 0.08 µM,0.833
same,relative viability,IA-LM; first compound 0.253 µM,0.946
same,relative viability,IA-LM; first compound 0.8 µM,0.799
same,relative viability,IA-LM; first compound 2.53 µM,0.949
same,relative viability,IA-LM; first compound 8 µM,0.905
same,relative viability,NCI-H3122; first compound 0.08 µM,1.05
same,relative viability,NCI-H3122; first compound 0.253 µM,1.15
same,relative viability,NCI-H3122; first compound 0.8 µM,1.08
same,relative viability,NCI-H3122; first compound 2.53 µM,1
same,relative viability,NCI-H3122; first compound 8 µM,1.12
same,relative viability,NCI-H2085; first compound 0.08 µM,1.01
same,relative viability,NCI-H2085; first compound 0.253 µM,1.11
same,relative viability,NCI-H2085; first compound 0.8 µM,1.14
same,relative viability,NCI-H2085; first compound 2.53 µM,0.94
same,relative viability,NCI-H2085; first compound 8 µM,1.09
same,relative viability,EBC-1; first compound 0.08 µM,0.602
same,relative viability,EBC-1; first compound 0.253 µM,0.535
same,relative viability,EBC-1; first compound 0.8 µM,0.546
same,relative viability,EBC-1; first compound 2.53 µM,0.424
same,relative viability,EBC-1; first compound 8 µM,0.448
same,relative viability,NCI-H1703; first compound 0.253 µM,0.356
same,relative viability,NCI-H1703; first compound 0.8 µM,0.384
same,relative viability,NCI-H1703; first compound 2.53 µM,0.346
same,relative viability,NCI-H1703; first compound 8 µM,0.285

# Reference: the supplement of paper PMC10307832
